Source: patent publication US20260199273A1, “Compounds for the Treatment of Neuromuscular Disorders” (NMD PHARMA A/S, priority 2022, published 2026)

molecular target: T1, CIC-1 ion channel (Rattus norvegicus, UniProt P35524); experiment: Electrophysiological measurement of compound inhibition of CIC-1 in rat muscle (Gm in soleus fibres, three micro-electrodes); assay type: cell-based; settings: Gm in individual fibres of whole rat soleus muscles, approx. 30° C., four increasing compound concentrations; read-out: Potency Range (EC50, inhibition of CIC-1 ion channel)
T1 construct: from tissue; host or cells: whole soleus muscle of 12-14 week old Wistar rats
T1 sequence (P35524 1-994): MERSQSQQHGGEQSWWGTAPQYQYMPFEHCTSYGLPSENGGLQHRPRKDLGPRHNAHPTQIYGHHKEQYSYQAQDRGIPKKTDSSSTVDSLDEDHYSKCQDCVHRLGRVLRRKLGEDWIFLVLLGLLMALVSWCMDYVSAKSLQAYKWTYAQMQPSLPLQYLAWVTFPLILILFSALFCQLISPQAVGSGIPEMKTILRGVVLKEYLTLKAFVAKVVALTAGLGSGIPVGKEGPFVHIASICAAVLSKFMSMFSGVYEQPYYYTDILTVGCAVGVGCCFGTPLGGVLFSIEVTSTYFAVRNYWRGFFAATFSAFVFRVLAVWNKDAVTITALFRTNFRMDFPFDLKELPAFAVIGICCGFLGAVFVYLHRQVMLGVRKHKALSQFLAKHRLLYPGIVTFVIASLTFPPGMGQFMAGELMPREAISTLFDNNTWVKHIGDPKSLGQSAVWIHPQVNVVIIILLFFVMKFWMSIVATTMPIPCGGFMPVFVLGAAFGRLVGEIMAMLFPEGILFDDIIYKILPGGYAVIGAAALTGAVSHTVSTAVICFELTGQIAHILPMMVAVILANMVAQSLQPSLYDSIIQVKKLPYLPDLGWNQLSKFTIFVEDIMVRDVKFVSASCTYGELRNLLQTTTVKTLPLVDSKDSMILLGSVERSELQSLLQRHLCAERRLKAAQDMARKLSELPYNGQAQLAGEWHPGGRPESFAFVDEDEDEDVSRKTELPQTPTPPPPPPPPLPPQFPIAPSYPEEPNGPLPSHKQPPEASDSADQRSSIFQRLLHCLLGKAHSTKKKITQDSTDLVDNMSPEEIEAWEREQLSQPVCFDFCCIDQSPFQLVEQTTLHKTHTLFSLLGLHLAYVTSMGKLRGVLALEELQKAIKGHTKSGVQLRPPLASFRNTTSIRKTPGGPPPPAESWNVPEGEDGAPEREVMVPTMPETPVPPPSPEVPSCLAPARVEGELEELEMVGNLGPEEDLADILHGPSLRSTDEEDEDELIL
Method: Apparent CIC-1 affinity was reported by the concentration of compound at which 50% of the compound's full inhibition of CIC-1 was observed (EC50) (see also WO2019/115777).
Experimentally, Gm was measured in individual fibres of whole rat soleus muscles using a three micro-electrodes technique described in this example and in full detail elsewhere (Riisager et al., Determination of cable parameters in skeletal muscle fibres during repetitive firing of action potentials. Journal of Physiology, 2014, 592, 4417-4429). Briefly, intact rat soleus muscles were dissected out from 12-14 week old Wistar rats and placed in an experimental chamber that was perfused with a standard Krebs Ringer solution containing 122 mM NaCl, 25 mM NaHCO3, 2.8 mM KCl, 1.2 mM KH2PO4, 1.2 mM MgSO4, 1.3 mM CaCl2, 5.0 mM D-glucose. During experiments, the solution was kept at approx. 30° C. and continuously equilibrated with a mixture of 95% O2 and 5% CO2, pH ~7.4. The experimental chamber was placed in Nikon upright microscope that was used to visualize individual muscle fibres and the three electrodes (glass pipettes filled with 2 M potassium citrate). For Gm measurements, the electrodes were inserted into the same fibre with known inter-electrode distances of 0.35-0.5 mm (V1-V2, X1) and 1.1-1.5 mm (V1-V3, X3). The membrane potential of the impaled muscle fibre was recorded by all electrodes. Two of the electrodes were furthermore used to inject 50 ms current pulses of −30 nA. […] The steady state voltage deflection at each distance was divided by the magnitude of current injected (−30 nA) and the resulting transfer resistances were plotted against inter-electrode distance and the data was fitted to a mono-exponential function from which Gm could be calculated using linear cable theory.
To establish a dose response relationship, Gm was first determined in 10 muscle fibres in the absence of compound and then at four increasing compound concentrations with Gm determinations in 5-10 fibres at each concentration. The average Gm values at each concentration were plotted against compound concentration and the data was fitted to sigmoidal function to obtain an EC5o value.

`COc1c(C)cc2c(c1C(=O)O)CCC2` [Compound A-47, 5-Methoxy-6-methyl-2,3-dihydro-1H-indene-4-carboxylic acid] and `O=C(O)c1cc(Cl)cc2c1CCCC2` [Compound A-3, 3-chloro-5,6,7,8-tetrahydronaphthalene-1-carboxylic acid] fall in the same range of EC50: 2000 to 10000 nM for the first, 2000 to 10000 nM for the second.

In the case of `O=C(O)c1c(F)c(Cl)cc2c1CCCS2` [Compound A-65, 7-chloro-6-fluoro-3,4-dihydro-2H-1-benzothiopyran-5-carboxylic acid], the EC50 is reported as 200 to 2000 nM.

system: isolated rat soleus nerve-muscle preparations; experiment: Measurement of force in an in vitro model: recovery of nerve-stimulated contractile force after tubocurarine; settings: 40 min, 10 μM of test compound, after 40 mins of compound exposure, tubocurarine (115 nM) for 90 minutes, read-out: Point increase (%): percentage increase of initial force that was restored
Method: In one aspect, the invention relates to a method for recovery of force in muscles with neuromuscular dysfunction, said method comprising administering a compound or a composition as defined herein to a subject in need thereof. The term “recovery of force in muscles with neuromuscular dysfunction” as used herein refers to the ability of a compound to recover contractile force in nerve-stimulated healthy rat muscle after exposure to submaximal concentration (115 nM) of tubocurarine for 90 minutes.
Recovery of force is quantified as the percentage of the force prior to tubocurarine that is recovered after addition of the compound. In one embodiment, said recovery of force is >5%, such as >10%, such as >15%, such as >20%, such as >25%, such as >30%, such as >35%.
The current disclosure relates to compounds that inhibit CIC-1 ion channels and increase muscle excitability and thereby improve muscle function in clinical conditions where muscle activation is failing. Such conditions result in loss of contractile function of skeletal muscle, weakness and excessive fatigue. In this series of experiments the compounds were tested for their ability to restore contractile function of isolated rat muscle when the neuromuscular transmission had been compromised akin to neuromuscular disorders.
Experimentally, soleus muscles from 4-5 week old rats were isolated with the motor nerve remaining attached. The nerve-muscle preparations were mounted in experimental setups that enabled electrical stimulation of the motor nerve. Stimulation of the motor nerve led to activation of the muscle fibres and ensuing force production that was recorded. The nerve-muscle preparations were also in these experiments incubated in the standard Krebs Ringer (see example 15) and the solution was heated to 30° C. and continuously equilibrated with a mixture of 95% O2 and 5% CO2, pH ~7.4.
After mounting the nerve-muscle preparation in the experimental setup, the contractile function of the muscle was initially assessed under the control conditions. Sub-maximal concentration of tubocurarine (115 nM), an acetylcholine receptor antagonist, was then added to the experimental bath to impose partial inhibition of the ability of the motor nerve to activate the muscle fibres. The experimental condition mimics the failing neuromuscular transmission in a range of neuromuscular disorders. After addition of tubocurarine the contractile force declined over the next 90 minutes to 10-50% of the control force. The test compound was then added to obtain the required compound concentration in the bath and the contractile force recovered was measured. To quantify the ability of the compound to restore force the percentage of the initial force that was restored was determined after 40 mins of compound exposure and the point increase is reported in Tables 3 to 7.

Going from `O=C(O)c1cc(Cl)cc2c1CCCC2` [Compound A-3, 3-chloro-5,6,7,8-tetrahydronaphthalene-1-carboxylic acid] to `O=C(O)c1c(Br)c(Cl)cc2c1CCCC2` [Compound A-66, 2-Bromo-3-chloro-5,6,7,8-tetrahydronaphthalene-1-carboxylic acid], the activation at 10 µM falls from 38% to 25%.

Going from `O=C(O)c1c(F)c(Cl)cc2c1CCCS2` [Compound A-65, 7-chloro-6-fluoro-3,4-dihydro-2H-1-benzothiopyran-5-carboxylic acid] to `COc1c(Cl)cc2c(c1C(=O)O)CCCO2` [Compound A-79, 7-Chloro-6-methoxy-5-chromancarboxylic acid], the activation at 10 µM falls from 49% to 34%.

Compared with `CC1(C)CCc2cc(F)c(Cl)c(C(=O)O)c2O1` [Compound A-75, 7-Chloro-6-fluoro-2,2-dimethyl-8-chromancarboxylic acid], `CN1CCCc2cc(F)c(Cl)c(C(=O)O)c21` [Compound A-77, 7-Chloro-6-fluoro-1-methyl-1,2,3,4-tetrahydro-8-quinolinecarboxylic acid] is higher in activation at 10 µM: 10% for the first, 18% for the second.

Going from `CCOc1c(Cl)cc2c(c1C(=O)O)CCCC2` [Compound A-82, 3-Chloro-2-ethoxy-5,6,7,8-tetrahydro-1-naphthoic acid] to `O=C(O)c1c(Cl)c(Br)cc2c1CCCC2` [Compound A-67, 3-bromo-2-chloro-5,6,7,8-tetrahydronaphthalene-1-carboxylic acid], the activation at 10 µM falls from 61% to 25%.

same assay, conditions: 40 min, 25 μM of test compound, after 40 mins of compound exposure, tubocurarine (115 nM) for 90 minutes, read-out: Point increase (%): percentage increase of initial force that was restored

Compared with `O=C(O)c1c(F)c(Cl)cc2c1OCCC2Cc1ccccc1` (centres unmarked) [Compound A-78, 4-Benzyl-6-chloro-7-fluoro-8-chromancarboxylic acid], `O=C(O)c1c(F)c(Cl)cc2c1CCN2Cc1ccccc1` [Compound A-76, 1-Benzyl-6-chloro-5-fluoro-4-indolinecarboxylic acid] is higher in activation at 25 µM: 35% for the first, 45% for the second.

Going from `O=C(O)c1c(Cl)c(F)cc2c1CCC2` [Compound A-62, 5-Chloro-6-fluoro-2,3-dihydro-1H-indene-4-carboxylic acid] to `O=C(O)c1c(Cl)c(F)cc2c1SCCC2` [Compound A-64, 7-Chloro-6-fluoro-3,4-dihydro-2H-1-benzothiopyran-8-carboxylic acid], the activation at 25 µM rises from 14% to 34%.

same assay, conditions: 40 min, 50 μM of test compound, after 40 mins of compound exposure, tubocurarine (115 nM) for 90 minutes, read-out: Point increase (%): percentage increase of initial force that was restored

Going from `O=C(O)c1c(F)c(C(F)(F)F)cc2c1CCCC2` [Compound A-60, 2-Fluoro-3-(trifluoromethyl)-5,6,7,8-tetrahydronaphthalene-1-carboxylic acid] to `O=C(O)c1c(F)c(I)cc2c1CCCC2` [Compound A-55, 2-Fluoro-3-iodo-5,6,7,8-tetrahydronaphthalene-1-carboxylic acid], the activation at 50 µM rises from 21% to 42%.

First: Cc1cc2c(c(C(=O)O)c1F)CCCO2 [Compound A-58, 6-Fluoro-7-methyl-3,4-dihydro-2H-1-benzopyran-5-carboxylic acid]
Second: COc1c(C)cc2c(c1C(=O)O)CCC2 [Compound A-47, 5-Methoxy-6-methyl-2,3-dihydro-1H-indene-4-carboxylic acid]
The activation at 50 µM of the first is higher: 48% for the first, 37% for the second.

Compared with `Cc1cc2c(c(C(=O)O)c1Cl)CCCCC2` [Compound A-34, 2-chloro-3-methyl-6,7,8,9-tetrahydro-5H-benzo[7]annulene-1-carboxylic acid], `Cc1c(Br)cc2c(c1C(=O)O)CCC2` [Compound A-2, 6-Bromo-5-methyl-2,3-dihydro-1H-indene-4-carboxylic acid] is lower in activation at 50 µM: 20% for the first, 19% for the second.

Compared with `COc1c(F)cc2c(c1C(=O)O)C(Cc1ccccc1)CCO2` (centres unmarked) [Compound A-81, 4-Benzyl-7-fluoro-6-methoxy-5-chromancarboxylic acid], `COc1cc2c(c(C(=O)O)c1F)OCCC2Cc1ccccc1` (centres unmarked) [Compound A-80, 4-Benzyl-7-fluoro-6-methoxy-8-chromancarboxylic acid] is higher in activation at 50 µM: 19% for the first, 22% for the second.

First: Cc1c(Cl)cc2c(c1C(=O)O)OCC2 [Compound A-12, 5-Chloro-6-methyl-2,3-dihydro-1-benzofuran-7-carboxylic acid]
Second: O=C(O)c1c(F)c(Cl)cc2c1OCC2 [Compound A-43, 5-Chloro-6-fluoro-2,3-dihydro-1-benzofuran-7-carboxylic acid]
The activation at 50 µM of the first is lower: 19% for the first, 25% for the second.

Going from `O=C(O)c1c2c(cc(Cl)c1OCF)CCC2` [Compound A-7, 6-Chloro-5-(fluoromethoxy)-2,3-dihydro-1H-indene-4-carboxylic acid] to `O=C(O)c1c2c(cc(Cl)c1OC(F)(F)F)CCC2` [Compound A-11, 6-Chloro-5-(trifluoromethoxy)-2,3-dihydro-1H-indene-4-carboxylic acid], the activation at 50 µM falls from 36% to 31%.

same assay, conditions: 40 min, 100 μM of test compound, after 40 mins of compound exposure, tubocurarine (115 nM) for 90 minutes, read-out: Point increase (%): percentage increase of initial force that was restored

Compared with `O=C(O)c1c(Cl)c(Cl)cc2c1CN(Cc1ccccc1)C2` [Compound A-68, 2-Benzyl-5,6-dichloro-2,3-dihydro-1H-isoindole-4-carboxylic acid], `CN1CCCc2c1cc(Cl)c(F)c2C(=O)O` [Compound A-45, 7-Chloro-6-fluoro-1-methyl-1,2,3,4-tetrahydroquinoline-5-carboxylic acid] is lower in activation at 100 µM: 40% for the first, 38% for the second.
